Series [1] has as its system rat hind paw. Briefly: Heat-induced paw edema and protein extravasation (Evans blue), hind paw in 58° C. water for 5 min. It counts as in vivo. On the procedure:
Male albino rats weighing 200 to 280 g were anesthetized with sodium pentobarbital, 60 mg/kg i.p., and a right jugular vein cannulated for drug injections. Human/rat CRF (at various dosages described below) or saline, and Evans blue dye, 50 mg/kg, were injected intravenously 10 and 3 min., respectively, before immersion of the hind paw in 48° C. or 58° C. water for 5 min. The frequency of paw withdrawal from the water was then counted.
(§1) At the end of the exposure period, the animals were sacrificed and the dorsal skin, between the calcaneal process and phalanges, was removed from both paws, weighed, and each placed in 4 ml of formamide for 3 days at room temperature. The extracted Evans blue was quantified colorimetrically at 600 nm with readings from the untreated paw skin used as the blank values.
Protein extravasation was measured by injecting a dye into a blood compartment of the animal. The dye binds to blood proteins and when the permeability of the tissue is increased by the heat, the dye leaks into the skin of the paw. The skin of the paw was excised, the dye extracted, and the amount of dye in the skin was measured to provide an index of the skin permeability changes that accompany the heat damage. […] In a manner analogous to that described above for administration of CRF, sauvagine was administered and paws of the anesthetized recipients exposed to water at 58° C. Saline was administered to a control group. The dose of sauvagine was 5 μg/kg given i.v. 5 min. before paw immersion.
In addition, other groups of rats were administered eithe rmorphine sulfate or dexamethasone, and groups of rats were administered saline as controls.

Series [2] in a line: Mean arterial blood pressure (MAP). It counts as in vivo, rat. Conditions: s.c. 60 min. before electrical stimulation of the saphenous nerve. On the procedure:
For injections of drugs into the brain, a 21-gauge guide cannula was stereotaxically implanted into the lateral ventricle and a 28-gauge internal cannula coupled to a Hamilton microsyringe was used to deliver a 5-μl volume of drug solution to the brain. The site of injection was verified by injections of 0.5% solutions of methylene blue into the same cannula. In some experiments, blood pressure was measured from a cannulated carotid artery coupled to a Narcobiosystems strain gauge, cardiotachometer and polygraph. Mean arterial blood pressure (MAP) was calculated as 1/3 pulse pressure plus diastolic pressure.
As has been known, CRF and related peptides produce hypotension in anesthetized and unanesthetized animals. […] Neither does the inflammation inhibition of the present invention appear to have any associaton with the hypotensive properties of CRF and its analogs.

Series [3] deals with rat hind paw. Kind of series: Heat-induced paw edema and protein extravasation, hind paw in 48° C. water for 5 min. The format is in vivo. To be noted: sauvagine 5 μg/kg i.v. 5 min. before. On the procedure:
Male albino rats weighing 200 to 280 g were anesthetized with sodium pentobarbital, 60 mg/kg i.p., and a right jugular vein cannulated for drug injections. […] The frequency of paw withdrawal from the water was then counted. Leakage of Evans blue dye into the paw skin becomes visible within 2 min. At water temperatures of 58° C., the average dye content was 364±17 μg/paw for rats receiving saline.
as §1
FIG. 3 illustrates the inhibition by CRF of heat-induced tissue edema, as measured by changes in skin weight. When the paw of an untreated, anesthetized rat is placed in warm water (48° C.) for 5 min., the paw swells and this paw edema can be measured simply by weighing the heated paw skin and comparing its weight to the contralateral, unheated paw skin. If just saline (that is, isotonic salt water) is injected as the control procedure, the percent increase in weight (with respect to unheated paw) is 72%.

The mark [4] stands for this setting: 0.50 mg/kg i.v., 5 min. before exposure.
[5] abbreviates: 3.0 mg/kg i.v., 5 min. before exposure.
Where [6] appears, read: 0.94 mg/kg i.v., 20 min. before exposure.
The mark [7] stands for this setting: 3.75 mg/kg i.v., 20 min. before exposure.
[8] abbreviates: 0.005 mg/kg i.v., 5 min. before exposure.
Where [9] appears, read: Table I, sheep CRF at 0.168 mg/kg i.v., sauvagine at 5 μg/kg i.v.

As to `C[C@@H]1C[C@H]2[C@@H]3CCC4=CC(=O)C=C[C@]4(C)[C@@]3(F)[C@@H](O)C[C@]2(C)[C@@]1(O)C(=O)CO` [dexamethasone, reference compound], in the series on rat hind paw [1] (setting [4]), the “% Weight Increase” value is reported as 170 ± 14% and the “Dye μg/paw” value amounted to 375 ± 23 μg/paw. In addition, in the series on rat hind paw [1] (doses of Table I), the “inhibition of edema (in words)” value is “neither morphine nor dexamethasone inhibits either edema” and the “inhibition of protein extravasation / dye leakage (in words)” value was “neither morphine nor dexamethasone inhibits”.
Regarding `CN1CC[C@]23c4c5ccc(O)c4O[C@H]2[C@@H](O)C=C[C@H]3[C@H]1C5.O=S(=O)(O)O` [morphine SO4, morphine sulfate, reference compound], in the series on rat hind paw [1] (setting [5]), the “% Weight Increase” value came to 157 ± 12% and the “Dye μg/paw” value is 290 ± 36 μg/paw.
As for `CC[C@H](C)[C@H](NC(=O)[C@@H](NC(=O)[C@H](CCC(=O)O)NC(=O)[C@H](CCSC)NC(=O)[C@H](CC(C)C)NC(=O)[C@H](CCCCN)NC(=O)[C@H](CCCNC(=N)N)NC(=O)[C@H](CC(N)=O)NC(=O)[C@H](CO)NC(=O)[C@H](Cc1c[nH]cn1)NC(=O)[C@H](C)NC(=O)[C@H](CCC(N)=O)NC(=O)[C@H](CCC(N)=O)NC(=O)[C@H](C)NC(=O)[C@H](CC(C)C)NC(=O)[C@H](CCC(N)=O)NC(=O)[C@H](CCC(=O)O)NC(=O)[C@H](C)NC(=O)[C@H](CCCNC(=N)N)NC(=O)[C@H](C)NC(=O)[C@H](CCSC)NC(=O)[C@H](CCC(=O)O)NC(=O)[C@H](CC(C)C)NC(=O)[C@@H](NC(=O)[C@H](CCC(=O)O)NC(=O)[C@H](CCCNC(=N)N)NC(=O)[C@H](CC(C)C)NC(=O)[C@H](CC(C)C)NC(=O)[C@H](Cc1c[nH]cn1)NC(=O)[C@H](Cc1ccccc1)NC(=O)[C@@H](NC(=O)[C@H](CC(C)C)NC(=O)[C@H](CC(=O)O)NC(=O)[C@H](CC(C)C)NC(=O)[C@H](CO)NC(=O)[C@@H](NC(=O)[C@@H]1CCCN1C(=O)[C@@H]1CCCN1C(=O)[C@H](CCC(=O)O)NC(=O)[C@H](CCC(=O)O)NC(=O)[C@@H](N)CO)[C@@H](C)CC)[C@@H](C)O)C(C)C)[C@@H](C)CC)C(N)=O` [rCRF, Corticotropin Releasing Factor], the “effect on mean arterial pressure” value in series [2] is “did not lower mean arterial pressure”.
For dynorphin (1-13), the entries for the “reduction of edema (in words)” value in the series on rat hind paw [1] (940 μg/kg) and with rat hind paw [1] (3750 μg/kg i.v.) were “did not” and “did reduce edema”, respectively. In addition, the “reduction of protein extravasation (in words)” value in the series with rat hind paw [1] (940 μg/kg) is “did not”; in the series with rat hind paw [1] (3750 μg/kg i.v.), “did reduce edema and protein extravasation”. The “% Weight Increase” value with rat hind paw [1] (setting [6]) turned out to be 194 ± 6%; in the series on rat hind paw [1] (setting [7]) it was 87 ± 17%. The “Dye μg/paw” value with rat hind paw [1] (setting [6]) turned out to be 411 ± 15 μg/paw; in the series with rat hind paw [1] (setting [7]), 223 ± 37 μg/paw.
Turning to sauvagine, in the series with rat hind paw [3], the dye increase worked out at 13.7 ± 3.5 μg/paw and the “paw skin weight increase” value worked out at 4.9%+2.0. In the series on rat hind paw [1] (setting [8]), the “% Weight Increase” value is given as 51 ± 11% and the “Dye μg/paw” value turned out to be 86 ± 18 μg/paw. In the series on rat hind paw [1] (setting [9]), the “reduction of edema relative to saline” value is listed as “about comparable to the sheep CRF at 168 μg/kg i.v. in reducing edema” and the “reduction of protein extravasation relative to saline” value was “even more effective in reducing protein extravasation”.

The values above are taken from patent US4801612A, “Method of inhibiting inflammatory response” (Regents of the University of California, priority 1986, dated 1989).
